{"source": "paper PMC9369610", "about": "“Pro-Apoptotic and Pro-Autophagic Properties of Cardenolides from Aerial Parts of Pergularia tomentosa” (Molecules, 2022)", "key": {"HepG2 cells [1]": {"tested_on": "HepG2 cells", "experiment": "BrdU incorporation (proliferation) assay", "type": "cell-based, human", "conditions": "HepG2, 1 μM, 24 h", "method": "Cell proliferation was analysed by a BrdU (Roche Diagnostics SpA, Monza, Italy) incorporation assay, as previously described. Briefly, HepG2 cells, seeded at adensity of 3 × 10^3/cm^2 on round glass cover slips, were treated for 24 h with P. tomentosa compounds at 1 μM. Then, BrdU was added to cell medium (final concentration, 100 μM) for 1 h. Cells were fixed (in 3% paraformaldehyde, 10 min), permeabilised (in 0.2% Triton X-100, 5 min) and treated with HCl 1.5 N (5 min). Finally, cover slips were incubated with a monoclonal antibody against BrdU (Sigma-Aldrich, Milan, Italy), 1:100, and with a TRITC-conjugated secondary antibody, 1:100. After staining with Hoechst, cover slips were mounted with Mowiol (Sigma, Milan, Italy). […] Images were acquired with Axiocam MRc5 and processed with ImageJ Launcher. The number of cells into S-phase was expressed as the ratio between the number of cells incorporating BrdU and the total number of cells."}, "HepG2 cells [2]": {"tested_on": "HepG2 cells", "experiment": "TUNEL assay", "type": "cell-based, human", "conditions": "HepG2, 1 μM, 24 h", "method": "Microscopic evaluation of apoptosis was performed by a TUNEL assay, using a commercial kit (Fragment End Labelling (FragEL™), […]) DNA Fragmentation Detection Kit, Sigma-Aldrich, Milan, Italy) according to the manufacturer-provided protocol, with some modifications. Briefly, cells were seeded on glass cover slips placed in 24-well plates at a density of 3.5 × 10^3/cm^2 and, after 48 h, they were treated with 1 μΜ of each compound for a further 24 h. Cells were fixed in 3% paraformaldehyde for 10 min, permeabilised in 0.2% Triton X-100 for 5 min and treated with HCl 1.5 N for 8 min. Finally, cover slips were equilibrated in equilibration buffer (10 min) and incubated with label mix containing the TdT enzyme for 1 h at 37 °C, then mounted with mounting media. Microscope observations were performed by the AxioSkop 40 fluorescent microscope. Images were acquired with Axiocam MRc5 (Carl Zeiss MicroImaging, Inc., Jena, Germany)."}, "HepG2 cells [3]": {"tested_on": "HepG2 cells", "experiment": "MTT cell viability assay, IC50 in HepG2 cells", "type": "cell-based", "conditions": "Homo sapiens, 24 h, SE less than 10% of value", "method": "The human liver hepatocellular carcinoma cell line, HepG2, and the human adenocarcinoma of colon cell line, Caco-2, were cultured in Eagle’s Minimum Essential medium supplemented with 1% (v/v) non-essential amino acids, 0.2 mM L-glutamine, 50 units/mL penicillin, 50 μg/mL streptomycin and 10% (v/v) or 20% (v/v) fetal bovine serum (Sigma Aldrich, Milan, Italy) for HepG2 or Caco-2, respectively. The human embryonal lung fibroblast cell line, MRC5, was cultured in Dulbecco’s Modified Eagle medium (Sigma Aldrich, Milan, Italy) supplemented with 10% (v/v) fetal bovine serum, 0.2 mM L-glutamine, 50 units/mL penicillin and 50 μg/mL streptomycin. HUVEC cells were cultured in endothelial growth medium-2, supplemented with fetal bovine serum (2%), VEGF (0.1%), rH FGF-B (0.4%), rH EGF (0.1%), GA-1000 (0.1%), hydrocortisone (0.04%), R3-IGF-1 (0.1%), heparin (0.1%) and ascorbic acid (0.1%). Cells were maintained at 37 °C in a 5% CO2, 95% air-humidified atmosphere and passaged twice a week. Cell lines were obtained from Interlab Cell Line Collection, Istituto Nazionale per la Ricerca sul Cancro, Genoa, Italy. HUVEC were obtained from Lonza (Milan, Italy).\nAn MTT assay was used to analyse cell viability. Cells were seeded in 96 wells at the density of 2 × 10^4/cm^2 and, after 24 h, they were treated with P. tomentosa compounds or with the vehicle (DMSO). After a further 24 h of treatment, 0.5 mg/mL of MTT was added to the cell medium and incubated for 1.5 h at 37 °C. The resulting formazan crystals were dissolved in 100 μL of DMSO and absorbances were measured at 595 nm and 655 nm. The background signals at 655 nm were subtracted from 595 nm signals, and data were expressed as a percent of cell viability. The concentration of each compound that is required for 50% inhibition in vitro (IC50) was calculated as described in Husseini et al.. IC50 values were obtained for Caco-2, HepG2 and MRC5 cells by performing MTT assays with concentrations ranging from 0.01 μg/mL to 5 μg/mL."}}}
{"smiles": "C[C@@H]1C[C@@H](O)[C@]2(O)O[C@@H]3C[C@@]4(C=O)[C@@H](CC[C@@H]5[C@@H]4CC[C@]4(C)[C@@H](C6=CC(=O)OC6)CC[C@]54O)C[C@H]3O[C@@H]2O1", "note": "[Compound 5, calactin]", "values": [{"measurement": "effect on BrdU incorporation / cell cycle progression", "setting": "HepG2 cells [1]", "value": "significantly affected cell cycle progression"}, {"measurement": "apoptotic nuclei (TUNEL)", "setting": "HepG2 cells [2]", "value": "occurrence of apoptotic nuclei"}, {"measurement": "IC50", "setting": "HepG2 cells [3]", "value": 127, "unit": "nM"}]}
